The target of one data set is T1, recombinant human MAO-B (Homo sapiens, UniProt P27338).
T1 construct: purchased Sigma-Aldrich; host or cells: baculovirus-infected insect cells (microsomes)
T1 sequence (P27338 1-520): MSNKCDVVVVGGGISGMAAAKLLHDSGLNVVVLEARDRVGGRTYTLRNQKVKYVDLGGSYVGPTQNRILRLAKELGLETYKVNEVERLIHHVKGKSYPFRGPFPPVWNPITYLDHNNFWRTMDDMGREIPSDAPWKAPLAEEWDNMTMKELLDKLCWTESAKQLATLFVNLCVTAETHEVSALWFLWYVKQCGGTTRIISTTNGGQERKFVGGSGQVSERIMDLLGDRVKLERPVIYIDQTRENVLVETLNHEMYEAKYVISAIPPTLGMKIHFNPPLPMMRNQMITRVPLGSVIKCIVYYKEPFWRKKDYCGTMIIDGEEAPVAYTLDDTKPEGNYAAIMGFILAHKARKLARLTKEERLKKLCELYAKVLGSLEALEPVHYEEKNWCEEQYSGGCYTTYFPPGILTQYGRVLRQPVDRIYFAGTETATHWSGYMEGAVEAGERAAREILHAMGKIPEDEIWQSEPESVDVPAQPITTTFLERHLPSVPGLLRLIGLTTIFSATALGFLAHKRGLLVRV
In words: MAO-Glo chemiluminescent MAO-B inhibition assay.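 As to all read-outs here: MAO-B from microsomes of baculovirus-infected insect cells, luciferin-based luminescence read-out, inhibition relative to enzyme activity with DMSO vehicle alone and no inhibitor.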 Type of data set: biochemical. The settings on record: for MAO-B inhibition (Yes/No): overall verdict over 1, 10 and 100 μM; for inhibition at 1 µM: test concentration 1 μM; for inhibition at 1 µM / inhibition at 10 µM / inhibition at 100 µM: mean ± standard deviation, triplicate, 90 min incubation; for inhibition at 10 µM: test concentration 10 μM; for inhibition at 100 µM: test concentration 100 μM.

The conditions of data set [1]: measured in vivo in rat brain; cited from earlier work.

Take `COc1ccccc1O` [2-Methoxyphenol]: on recombinant human MAO-B, the “MAO-B inhibition (Yes/No)” value was “No”, the inhibition at 1 µM is 0%, the inhibition at 10 µM came to 0% and the inhibition at 100 µM was found to be 0%.
Take `O=Cc1ccc(O)c(O)c1` [3,4-Dihydroxybenzaldehyde]: at recombinant human MAO-B, the “MAO-B inhibition (Yes/No)” value was “No”, the inhibition at 1 µM stood at 0%, the inhibition at 10 µM was found to be 4 ± 5.1% and the inhibition at 100 µM worked out at 9 ± 3.6%.
The corresponding values for `CC(=O)C(C)O` (stereo not drawn) [3-Hydroxy-2-butanone] are “No”, 11 ± 4.2%, 6 ± 5.2% and 7 ± 3.4%.
The corresponding values for `CC1=C(O)C(=O)C(C)O1` (stereo not drawn) [4-Hydroxy-2,5-dimethyl-3(2H)-furanone] are “No”, 0%, 9 ± 3.3% and 7 ± 11.7%.
The like results for `O=Cc1ccc(O)cc1` [4-Hydroxybenzaldehyde] were, in that order, “Yes”, 10 ± 3.2%, 6 ± 4.7% and 27 ± 5.1%.
For `O=C(O)c1ccc(O)cc1` [4-Hydroxybenzoic acid], at recombinant human MAO-B, the “MAO-B inhibition (Yes/No)” value is given as “No”, the inhibition at 1 µM was 13 ± 3.2%, the inhibition at 10 µM stood at 9 ± 5.2% and the inhibition at 100 µM was found to be 11 ± 5.7%.
The corresponding values for `OCc1ccc(O)cc1` [4-Hydroxybenzyl alcohol] are “No”, 1 ± 7.9%, 0% and 6 ± 8.1%.
The like results for `COc1ccc(C=O)cc1` [4-Methoxybenzaldehyde] were, in that order, “Yes”, 0%, 11 ± 3.8% and 75 ± 1.9%.
Turning to `O=C(/C=C/c1ccccc1)OCc1ccccc1` [Benzyl cinnamate], on recombinant human MAO-B, the “MAO-B inhibition (Yes/No)” value was “Yes”, the inhibition at 1 µM worked out at 10 ± 6.4%, the inhibition at 10 µM stood at 63 ± 3.1% and the inhibition at 100 µM stood at 100%.
Take `O=C(O)/C=C/c1ccc(O)cc1` [Coumaric acid]: at recombinant human MAO-B, the inhibition at 1 µM was 11 ± 4.2%, the inhibition at 10 µM amounted to 16 ± 2.8% and the inhibition at 100 µM stood at 17 ± 7.3%.
Turning to `CCOc1cc(C=O)ccc1O` [Ethyl vanillin], on recombinant human MAO-B, the “MAO-B inhibition (Yes/No)” value was “No”, the inhibition at 1 µM was 0%, the inhibition at 10 µM worked out at 0% and the inhibition at 100 µM turned out to be 4 ± 5.3%.
On to `C=CCc1ccc(O)c(OC)c1` [Eugenol], for which, on recombinant human MAO-B, the “MAO-B inhibition (Yes/No)” value is recorded as “No”, the inhibition at 1 µM stood at 0%, the inhibition at 10 µM turned out to be 4 ± 4.6% and the inhibition at 100 µM stood at 0%.
On to `COc1cc(/C=C/C(=O)O)ccc1O` [Ferulic acid], for which, at recombinant human MAO-B, the “MAO-B inhibition (Yes/No)” value was “No”, the inhibition at 1 µM was determined as 4 ± 1.2%, the inhibition at 10 µM came out at 9 ± 1.7% and the inhibition at 100 µM worked out at 4 ± 7%.
Take `O=Cc1ccc2c(c1)OCO2` [Piperonal]: at recombinant human MAO-B, the “MAO-B inhibition (Yes/No)” value is recorded as “Yes”, the inhibition at 1 µM worked out at 10 ± 2.9%, the inhibition at 10 µM worked out at 53 ± 4% and the inhibition at 100 µM turned out to be 100%.
The corresponding values for `COc1cc(C(=O)O)ccc1O` [Vanillic acid] are “No”, 6 ± 4.2%, 5 ± 7.3% and 11 ± 3.3%.
As to `COc1cc(C=O)ccc1O` [Vanillin], the inhibition at 100 µM on recombinant human MAO-B amounted to 19 ± 5.6%.
Take `COc1cc(CO)ccc1O` [Vanillyl Alcohol]: on recombinant human MAO-B, the “MAO-B inhibition (Yes/No)” value is listed as “No”, the inhibition at 1 µM turned out to be 2 ± 4%, the inhibition at 10 µM is 9 ± 3% and the inhibition at 100 µM worked out at 6 ± 5.1%.
The corresponding values for `COc1ccc(C=O)cc1OC` [Veratraldehyde] are “No”, 1 ± 1.5%, 2 ± 6.6% and 0%.
Regarding `NCCc1ccccc1` [phenylethylamine, Phenylethylamine], the endogenous pool half-life result in data set [1] is listed as “approximately 30 s”.

What is called inhibition is the change of the read-out against control, counted positive when it falls.

These data come from patent US20150305367A1, “FROZEN CONFECTION” (CONOPCO, INC., D/B/A UNILEVER, priority 2012, published 2015).
